Test results published in ChEMBL document CHEMBL2010682, “Asperolides A-C, tetranorlabdane diterpenoids from the marine alga-derived endophytic fungus Aspergillus wentii EN-48” (J Nat Prod, 2012).
In brackets after ≈: the same amount, converted by molar mass. Activity calls are given as the source filed them. The calls are words filed in the database; no cut-off is given here.

What was measured:
MCF7 = test: Cytotoxicity against human MCF7 cells; format: functional, cell-based
HeLa = test: Cytotoxicity against human HeLa cells; format: functional, cell-based
NCI-H460 = test: Cytotoxicity against human NCI-H460 cells; format: functional, cell-based
Candida albicans = test: Antifungal activity against Candida albicans after 18 hrs by broth microdilution method; format: functional
MDA-MB-231 = test: Cytotoxicity against human MDA-MB-231 cells; format: functional, cell-based
SW1990 = test: Cytotoxicity against human SW1990 cells; format: functional, cell-based
HepG2 = test: Cytotoxicity against human HepG2 cells; format: functional, cell-based
SMMC-7721 = test: Cytotoxicity against human SMMC7721 cells; format: functional, cell-based
Staphylococcus aureus = test: Antibacterial activity against methicillin-resistant Staphylococcus aureus after 18 hrs by broth microdilution method; format: functional
[1] = system: Staphylococcus epidermidis; test: Antibacterial activity against Staphylococcus epidermidis after 18 hrs by broth microdilution method; format: functional
Pseudomonas fluorescens = test: Antibacterial activity against Pseudomonas fluorescens after 18 hrs by broth microdilution method; format: functional
Pseudomonas aeruginosa = test: Antibacterial activity against Pseudomonas aeruginosa after 18 hrs by broth microdilution method; format: functional
[2] = Homo sapiens, MCF7, read-out: IC50
[3] = Homo sapiens, HeLa, read-out: IC50
[4] = Homo sapiens, NCI-H460, read-out: IC50
[5] = Homo sapiens, MDA-MB-231, read-out: IC50
[6] = Homo sapiens, SW1990, read-out: IC50
[7] = Homo sapiens, HepG2, read-out: IC50
[8] = Homo sapiens, SMMC-7721, read-out: IC50

C[C@]12C(=O)O[C@@H]3C=C4COC(=O)C=C4[C@@](C)(C=C[C@@H]1O)[C@@H]32 gave an IC50 (MCF7; [2]) of 38 µM, an IC50 (HeLa; [3]) of 63 µM and an IC50 (NCI-H460; [4]) of 42 µM. For the same molecule, the MIC (Candida albicans) was 16 µg/mL (≈ 55.5 µM), the IC50 (MDA-MB-231; [5]) was 42 µM and the IC50 (SW1990; [6]) was 63 µM. The IC50 (HepG2; hepg2) was “Not Active”.

With C=C1[C@@H](O)C[C@@H]2[C@](C)(CCC[C@]2(C)C(=O)O)[C@H]1CC(=O)O the IC50 (MCF7; mcf7) was “Not Active”, the IC50 (HeLa; hela) was “Not Active” and the IC50 (NCI-H460; nci-h460) was “Not Active”. For the same molecule, the MIC (Candida albicans) was “inactive”, the IC50 (MDA-MB-231; mda-mb-231) was “Not Active” and the IC50 (SW1990; sw1990) was “Not Active”. For the same molecule, the IC50 (HepG2; hepg2) was “Not Active” and the IC50 (SMMC-7721; smmc-7721) was “Not Active”.

In the case of CC1(C)S[C@@H]2[C@H](NC(=O)[C@H](N)c3ccccc3)C(=O)N2[C@H]1C(=O)O [AMPICILLIN], the MIC (Staphylococcus aureus) is reported as 8 µg/mL (≈ 22.9 µM), the MIC [1] is reported as 4 µg/mL (≈ 11.4 µM) and the MIC (Pseudomonas fluorescens) is reported as 2 µg/mL (≈ 5.72 µM). It also gave an MIC (Pseudomonas aeruginosa) of 4 µg/mL (≈ 11.4 µM).

C[C@]12C3=CC(=O)OCC3=C[C@H]3OC(=O)[C@@](C)(C=C[C@H]1O)[C@H]32 [ASPEROLIDE A] was tested, and the IC50 (MCF7; mcf7) was “Not Active”, the IC50 (HeLa; [3]) was 97 µM and the IC50 (NCI-H460; [4]) was 42 µM. The MIC (Candida albicans) was “inactive”, the IC50 (SW1990; [6]) was 69 µM and the IC50 (HepG2; [7]) was 63 µM. It also gave an IC50 (SMMC-7721; [8]) of 52 µM.

Work on C[C@@]12C3=CC(=O)OCC3=C[C@H]3OC(=O)[C@](C)([C@H]31)[C@H]1O[C@H]1[C@H]2O [ASPEROLIDE B] yielded an IC50 (MCF7; [2]) of 63 µM, an IC50 (HeLa; [3]) of 56 µM and an IC50 (NCI-H460; [4]) of 63 µM. The IC50 (MDA-MB-231; [5]) was 35 µM, the IC50 (SW1990; [6]) was 69 µM and the IC50 (HepG2; hepg2) was “Not Active”.

In the case of COc1cccc2c1C(=O)c1c(O)c3c(c(O)c1C2=O)C[C@@](O)(C(=O)CO)C[C@@H]3O[C@H]1C[C@H](N)[C@H](O)[C@H](C)O1 [DOXORUBICIN], the IC50 (MCF7; [2]) is reported as 7 µM, the IC50 (HeLa; [3]) is reported as 5 µM and the IC50 (MDA-MB-231; [5]) is reported as 4 µM. The IC50 (HepG2; [7]) was 7 µM and the IC50 (SMMC-7721; [8]) was 172 µM.

For O=c1[nH]cc(F)c(=O)[nH]1 [FLUOROURACIL], the IC50 (HeLa; [3]) was 108 µM, the IC50 (NCI-H460; [4]) was 8 µM and the IC50 (MDA-MB-231; [5]) was 62 µM. It also gave an IC50 (SW1990; [6]) of 123 µM, an IC50 (HepG2; [7]) of 108 µM and an IC50 (SMMC-7721; [8]) of 15 µM.

C[C@@]12C3=CC(=O)OCC3=C[C@H]3OC(=O)[C@](C)([C@H]31)[C@@H](O)[C@H]1O[C@H]12 [WENTILACTONE A] gave an IC50 (MCF7; [2]) of 69 µM, an IC50 (HeLa; [3]) of 52 µM and an IC50 (NCI-H460; [4]) of 28 µM. The MIC (Candida albicans) was “inactive”, the IC50 (SW1990; [6]) was 42 µM and the IC50 (HepG2; [7]) was 35 µM. It also gave an IC50 (SMMC-7721; [8]) of 28 µM.

Work on C[C@@]12C[C@@H](O)C[C@]3(C)C4=CC(=O)OCC4=C[C@@H](OC1=O)[C@@H]23 [WENTILACTONE B] yielded an IC50 (MCF7; [2]) of 56 µM, an IC50 (HeLa; [3]) of 42 µM and an IC50 (NCI-H460; [4]) of 24 µM. For the same molecule, the MIC (Candida albicans) was “inactive”, the IC50 (SW1990; [6]) was 24 µM and the IC50 (HepG2; [7]) was 38 µM. For the same molecule, the IC50 (SMMC-7721; [8]) was 17 µM.

NYSTATIN gave an MIC (Candida albicans) of 2 µg/mL.
